“Also recorded” adds a separate entry of the source. Read-outs that look alike come from different tables or passages of the source.
How the values were obtained:
[1] = target: recombinant IDO1 (Homo sapiens, UniProt P14902); experiment: Recombinant IDO1 conversion of L-tryptophan to formyl-kyneurenine; assay type: biochemical; conditions: compared to control (TMC) or vehicle
[2] = system: primary hepatocytes; experiment: IL-10 production from primary hepatocytes co-cultured with 24.7 iNKT hybridoma; conditions: response to iNKT cells in the presence of α-GC
[3] = system: MODE-K cells; experiment: Surface CD1d loaded with α-GC (L363 antibody staining) in MODE-K cells; assay type: cell-based, mouse; conditions: for compound induced reduction of cell surface CD1d lipid antigen loading when AhR expression is silenced: AhR siRNA
Text: (§1) In light of the decreased MTP expression observed in oxazolone treated IECs (FIG. 1B) and given that MTP loss alters the ability of CD1d to acquire exogenous antigens, such as α-GC, and CD1d elicited IL-10 responses by epithelial cells (Dougan et al. 2005, Dougan et al. 2007, Zeissig et al 2017, Sagiv et al. 2007, Brozovic et al. 2004, Olszak et al. 2014), it was investigated whether CD1d expression and lipid loading on oxazolone conditioned IECs.

[4] = system: epithelial enriched colon fractions; conditions: after intra-rectal oxazolone challenge; Olszak et al. 2014; cited from earlier work
[5] = system: MODE-K cells; experiment: Relative transcript abundance of target genes in MODE-K cells conditioned with compounds
Text: 4-ethoxymethylene-2-phenyl-2-oxazol-5-one, (referred to as oxazolone, FIG. 1A) has been widely utilized in models of contact hypersensitivity and when applied to the mucosa has been proposed to cause colitis through its properties as a hapten (Gorbachev and Fairchild 2001). However to date there is limited evidence for hapten-specific antibody production or responses following topical oxazolone sensitization or hapten modified autologous proteins or luminal antigens identified at mucosal sites (Singleton et al. 2016, Yanaba et al. 2008, Wirtz et al. 2007). […] It was then determined whether oxazolone could affect the expression of these transcripts in the intestinal epithelium in a cell intrinsic manner by directly stimulating an immortalized intestinal epithelial cell line (IEC) derived from mouse small intestine, MODE-K, with oxazolone.
To test this, a systematic in vitro system was devised to assess transcriptional and CD1d-restricted responses in IECs in response to stimulation with dietary OxC structures, including 2,4,5-trimethyl-2,5-dihydro-1,3-oxazole (referred to as TMO, FIG. 1A) found in coffee, peanuts, meats and utilized as a food additive, which lacks the 2-phenyl ring, 5-ketone, and 4-ethoxymethylene present in oxazolone (Vitzthum et al. 1975, Stoffesima et al. 1968, Lee et al. 1981, Chang et al. 1968, Ho and Hartman 1968).

[6] = system: bone marrow-derived dendritic cells; experiment: IFN-γ production in bone marrow-derived dendritic cell : 24.7 iNKT hybridoma co-culture; assay type: cell-based; conditions: bone marrow-derived dendritic cells with 24.7 iNKT hybridoma and α-GC
[7] = target: T1, aryl hydrocarbon receptor (AhR) (Mus musculus, UniProt P30561); experiment: AhR firefly luciferase reporter in IECs; assay type: cell-based; conditions: compared to vehicle or 1,2,4-trimethylcyclopentane
T1 construct: IECs were transfected with an AhR firefly luciferase reporter; endogenous in cells; host or cells: MODE-K (mouse intestinal epithelial cell line)
T1 sequence (P30561 10-848): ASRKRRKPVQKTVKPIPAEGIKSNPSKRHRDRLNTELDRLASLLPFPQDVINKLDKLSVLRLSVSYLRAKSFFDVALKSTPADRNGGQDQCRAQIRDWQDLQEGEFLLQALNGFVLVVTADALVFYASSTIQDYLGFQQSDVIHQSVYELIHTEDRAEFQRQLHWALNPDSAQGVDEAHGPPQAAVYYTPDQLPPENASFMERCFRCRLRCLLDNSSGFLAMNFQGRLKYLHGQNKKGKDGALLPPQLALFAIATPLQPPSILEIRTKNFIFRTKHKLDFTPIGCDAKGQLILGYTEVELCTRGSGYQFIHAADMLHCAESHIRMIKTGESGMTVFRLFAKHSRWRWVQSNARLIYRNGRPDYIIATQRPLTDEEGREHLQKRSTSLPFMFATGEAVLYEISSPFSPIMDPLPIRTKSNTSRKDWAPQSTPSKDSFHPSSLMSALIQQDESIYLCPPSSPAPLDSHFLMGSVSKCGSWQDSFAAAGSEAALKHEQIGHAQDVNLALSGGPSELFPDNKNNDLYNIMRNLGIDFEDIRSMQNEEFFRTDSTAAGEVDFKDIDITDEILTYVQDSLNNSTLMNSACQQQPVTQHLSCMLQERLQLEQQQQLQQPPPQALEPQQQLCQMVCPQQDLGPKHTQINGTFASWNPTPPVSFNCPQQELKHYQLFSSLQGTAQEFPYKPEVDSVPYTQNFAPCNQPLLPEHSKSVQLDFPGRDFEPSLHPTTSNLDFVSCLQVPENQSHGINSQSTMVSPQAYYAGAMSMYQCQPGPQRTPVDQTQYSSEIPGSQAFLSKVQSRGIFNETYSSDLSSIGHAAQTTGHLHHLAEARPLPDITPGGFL

[8] = system: IECs; experiment: LC-MS of deuterated L-trp (D5-Trp) metabolites in IEC lysates; assay type: cell-based; conditions: within 6 hours of exposure
Description: IDO1 is a rate-limiting enzyme involved in tryptophan catabolism that generates formyl-kyneurenine which can be further metabolized into a variety of AhR agonists (Higuchi and Hayaishi Arch Biochem Biophys 1967, Nguyen and Bradfield 2008, Zelante et al. 2014). […] To specifically identify these tryptophan derived products, IECs were cultured with deuterated L-trp (D5-Trp) and performed high performance liquid chromatography mass spectrometry (LC-MS) on lysates stimulated with oxazolone, TMO, frag-oz or TMC control (FIG. 5C). […] Taken together these latter studies are consistent with a model in which exposure of IECs to oxazole containing compounds leads to the activation of IDO1 and generation of tryptophan-derived metabolites that induce the AhR pathway to downregulate CD1d-restricted responses associated with the production of IL-10 (FIG. 6).

[9] = system: C57Bl/6 mice; experiment: Intra-rectal administration, colonic inflammation in vivo; parameters: species or system mouse; conditions: for IL-10 production in colonic explants: AhrΔIEC compared to wildtype controls, after intra-rectal challenge; for host protection, disease manifestations / weight loss: AhrΔIEC relative to Ahrfl/fl mice
Description: It was tested whether a dietary sourced minimal oxazole structure was sufficient to induce intestinal inflammation in vivo. […] To confirm this, the ability of oxazolone skin pre-sensitization to affect the responses to rectal challenge with TMO and vice-versa (FIG. 9D).
Next, it was tested whether B17 microcin derivatives could induce intestinal inflammation in vivo. Therefore, adequate quantities of a minimal B17 derivative (termed frag-oz, FIG. 2D) were synthesized to perform in vivo experiments and challenged animals via intra-rectal administration. […] These studies identify an oxazole containing microbial mimic that promotes CD1d-dependent intestinal inflammation independent of its classical anti-microbial activity.
These studies reveal a novel role for epithelial derived AhR signals in promoting mucosal inflammation when exposed to OxC.

[10] = system: MODE-K cells; experiment: CD1d-restricted IL-10 production in MODE-K:NKT cell hybridoma co-culture; assay type: cell-based, mouse; conditions: for compound induced inhibition of CD1d-restricted IL-10 production when AhR expression is silenced / decrease of IL-10 production when AhR was silenced: AhR siRNA; for compound induced inhibition of CD1d-restricted IL-10 production when AhR expression is silenced: IEC:iNKT cell co-cultures; for epithelial derived IL-10: no exogenous α-GC; for IL-10 production / decrease of IL-10 production when AhR was silenced: tryptophan-deficient conditions supplemented with kyneurenic acid
[11] = system: MODE-K cells; experiment: Surface and intracellular CD1d protein expression in MODE-K cells (flow cytometry); assay type: cell-based, mouse; conditions: IECs stimulated with compound
Text: as §1

[12] = system: C57Bl/6 mice; conditions: germ free animals; Olszak et al. 2012; cited from earlier work
[13] = target: T2, human IDO1(hIDO1) (Homo sapiens, UniProt P14902); experiment: In vitro screening assay for IDO1 enhancers; assay type: biochemical
T2 construct: made in house
Description: An in vitro screen for IDO1 enhancers was developed based on the following categories: Synthetic, dietary, and microbial compounds with structural similarity to oxazole template.
SDS-PAGE gel under reducing conditions showing that hIDO1 was purified to >95% purity after HiTrap HP chelating column.
HiPrep 16/60 Sephacryl S-200 HR column (GE Healthcare Life Sciences) size-exclusion chromatography in a buffer containing 10 mM HEPES buffer, 150 mM NaCl pH 7.0 of hIDO1 showing single peak and peak maximum of purified protein at 126.2 minutes.
Sizing fractions a3-a11 were checked for Heme absorbance at 402 and 280 nm. Fractions showing >2.0 Heme ratio were pooled and concentrated, and final 1.5 mg/ml concentrated protein was used for final bound heme estimation. A ratio of 2.22 at 402/280 nm confirmed heme binding to purified recombinant hIDO1 protein.

[14] = target: DNA gyrase (Escherichia coli, UniProt P0AES4+P0AES6); conditions: in vitro; literature (Collin et al. 2013; Yorgey et al. 1994, Li et al. 1996); cited from earlier work
[15] = MODE-K cells conditioned with compound, normalized to β-actin
[16] = IECs cultured in tryptophan-deficient media
[17] = tryptophan-deficient media supplemented with exogenous L-tryptophan
[18] = IEC enriched colonic fractions after intra-rectal administration
[19] = intra-rectal administration, wildtype

recombinant IDO1, sequence (P14902 whole entry, species assumed): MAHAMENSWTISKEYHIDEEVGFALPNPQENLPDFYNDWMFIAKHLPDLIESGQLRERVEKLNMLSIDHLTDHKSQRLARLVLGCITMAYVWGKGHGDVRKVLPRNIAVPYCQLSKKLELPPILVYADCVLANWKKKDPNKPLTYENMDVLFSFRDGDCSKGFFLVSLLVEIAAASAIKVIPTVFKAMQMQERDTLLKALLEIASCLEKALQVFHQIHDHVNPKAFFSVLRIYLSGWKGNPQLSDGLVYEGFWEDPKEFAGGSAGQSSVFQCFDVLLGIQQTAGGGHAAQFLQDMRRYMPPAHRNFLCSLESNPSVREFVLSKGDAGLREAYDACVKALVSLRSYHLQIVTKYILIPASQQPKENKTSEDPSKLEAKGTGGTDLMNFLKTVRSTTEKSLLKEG
T2 sequence (P14902 whole entry): as the sequence (P14902 whole entry, species assumed) above
DNA gyrase, sequence (P0AES4 whole entry, one chain of several): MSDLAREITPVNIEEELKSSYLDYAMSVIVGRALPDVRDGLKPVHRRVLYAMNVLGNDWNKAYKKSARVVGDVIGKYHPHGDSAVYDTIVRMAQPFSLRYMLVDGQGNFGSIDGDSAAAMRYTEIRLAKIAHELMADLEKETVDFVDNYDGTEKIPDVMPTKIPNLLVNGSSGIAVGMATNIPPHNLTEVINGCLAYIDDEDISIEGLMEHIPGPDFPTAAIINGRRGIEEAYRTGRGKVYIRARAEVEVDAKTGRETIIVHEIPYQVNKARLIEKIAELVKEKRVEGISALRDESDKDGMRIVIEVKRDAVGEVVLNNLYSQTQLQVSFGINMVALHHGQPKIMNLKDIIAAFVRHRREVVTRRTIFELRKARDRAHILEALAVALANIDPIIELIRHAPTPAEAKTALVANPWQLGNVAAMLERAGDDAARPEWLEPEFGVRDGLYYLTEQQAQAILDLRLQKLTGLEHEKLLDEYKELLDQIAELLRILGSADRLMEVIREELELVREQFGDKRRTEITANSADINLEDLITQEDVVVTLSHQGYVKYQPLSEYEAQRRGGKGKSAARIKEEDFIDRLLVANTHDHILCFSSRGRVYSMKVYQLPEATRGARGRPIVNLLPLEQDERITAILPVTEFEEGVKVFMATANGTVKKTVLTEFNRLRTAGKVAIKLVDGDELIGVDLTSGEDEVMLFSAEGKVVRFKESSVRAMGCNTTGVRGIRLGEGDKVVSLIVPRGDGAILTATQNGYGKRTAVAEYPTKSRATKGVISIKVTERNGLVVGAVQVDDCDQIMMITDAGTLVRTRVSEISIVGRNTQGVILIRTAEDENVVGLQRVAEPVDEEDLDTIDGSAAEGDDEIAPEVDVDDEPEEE

## CCO/C=C1\N=C(c2ccccc2)OC1=O [oxazolone, 4-ethoxymethylene-2-phenyl-2-oxazolin-5-one]
[1]
  ability of IDO1 to convert tryptophan to formyl-kyneurenine: enhanced
[2]
  compound induced inhibition of IL-10 production in hepatocytes from Ahr−/− mice: resistance
[3]
  compound induced reduction of cell surface CD1d lipid antigen loading when AhR expression is silenced: reversed
[3]; MODE-K cells conditioned with compound
  loading of α-GC on CD1d at the cell surface (L363 staining): decreased loading of α-GC on CD1d at the cell surface; also recorded: decreased cell surface staining
[4]
  Ido1 transcripts: increased transcripts
  Mttp transcripts: decreased transcripts
  cyp1a1 transcripts: increased transcripts
[5]; [15]
  Ido1 transcripts: induction; also recorded: induced expression of these genes in vitro and in vivo
  Mttp transcripts: down-regulation
[6]
  IFN-γ production: not affected
[7]
  AhR transcriptional activity: induced robust AhR transcriptional activity
[8]
  metabolite that D5-Trp was further metabolized to upon stimulation: kyneurenic acid
[9]
  IL-10 production in colonic explants: elevated IL-10 production
[9]; intra-rectal challenge
  host protection, disease manifestations: conferred host protection
  weight loss: diminished weight loss
[9]; topical sensitization followed by intra-rectal challenge
  effect of skin pre-sensitization with the other compound (oxazolone or TMO) on rectal responses: did not affect
[10]
  compound induced inhibition of CD1d-restricted IL-10 production when AhR expression is silenced: reversed
  IL-10 production: decreased IL-10 production
  decrease of IL-10 production when AhR was silenced: reduced when AhR was silenced
[10]; [16]
  CD1d-restricted IL-10 production: no longer attenuated
[10]; MODE-K pre-conditioned with compound, loaded with α-GC, co-culture with 24.7 iNKT hybridoma
  CD1d-restricted IL-10 production: attenuated IL-10 production; also recorded: limited
[10]; co-culture with autoreactive iNKT cell hybridoma (24.8)
  epithelial derived IL-10: suppressed
[10]; co-culture with autoreactive non-invariant dNKT cell hybridoma (14S.6)
  epithelial derived IL-10: suppressed
[10]; [17]
  CD1d-restricted IL-10 production: attenuation of CD1d-restricted IL-10 production
[11]
  CD1d protein expression or distribution between intracellular and cell surface pools: did not display altered CD1d protein expression or distribution
[12]
  inflammation in animals under GF conditions: induce inflammation

## CC(=O)NCc1nc(C(N)=O)co1 [frag-oz]
[1]
  ability of IDO1 to convert tryptophan to formyl-kyneurenine: enhanced
[2]
  compound induced inhibition of IL-10 production in hepatocytes from Ahr−/− mice: resistance
[3]
  compound induced reduction of cell surface CD1d lipid antigen loading when AhR expression is silenced: reversed
[5]
  Cyp1a1 transcripts: induced expression of these genes in vitro and in vivo
[5]; [15]
  Ido1 transcripts: induced expression of these genes in vitro and in vivo
[13]
  IDO1 enzymatic activity: IDO1 activators
[8]
  metabolite that D5-Trp was further metabolized to upon stimulation: xanthurenic acid
[9]
  IL-10 production in colonic explants: elevated IL-10 production
[9]; intra-rectal challenge
  host protection, disease manifestations: conferred host protection
  weight loss: diminished weight loss
[9]; [18]
  Cyp1a1 transcripts in IEC in vivo: induction of Cyp1a1
  Mttp transcripts in IEC in vivo: Decreased Mttp levels
[9]; germ free animals
  inflammation in animals under GF conditions: induce inflammation
[9]; germ free vs SPF, intra-rectal challenge
  weight loss in GF animals compared to SPF animals: increased weight loss
[9]; germ free, intra-rectal challenge
  histopathology in GF animals: severe histopathology
[9]; [19]
  Th1 and Th2 cytokines (IL-13, IFN-γ) from colon explants: induction of both Th1 and 2 cytokines
  histological pathology of the colon: CD1d-dependent pathology was observed
[10]
  compound induced inhibition of CD1d-restricted IL-10 production when AhR expression is silenced: reversed
  IL-10 production: decreased IL-10 production
  decrease of IL-10 production when AhR was silenced: reduced when AhR was silenced
[10]; [16]
  CD1d-restricted IL-10 production: no longer attenuated
[10]; [17]
  CD1d-restricted IL-10 production: attenuation of CD1d-restricted IL-10 production
[14]
  anti-gyrase activity: no anti-gyrase activity
